77 sequences from the OligoGym collection can be followed below.

The target in this data set is DGAT2. The settings on record: ASO.

“And” between values parts separate entries of the source, which are not always exact repeats. Identical values can stand only once. After the bases stand the sugars from the 5' end (letter, count) and the backbone: PS all phosphorothioate, else s phosphorothioate and o phosphodiester by linkage. Methylation of C is not given here. e = 2'-O-(2-methoxyethyl) (MOE); d = 2'-deoxy (DNA)

Take “AGCTGGATGGGAAAGTAGTC (sugars e5 d10 e5, PS)”: for the setting “HepG2, 0.12 µM”, the target mRNA inhibition is 31%.
In the case of “GGGCTAATACCTACCTCACC (sugars e5 d10 e5, PS)”, the target mRNA inhibition runs as follows: (HepG2, 2.5 µM) 53%; (HepG2, 10 µM) 74%.
In turn, “CCAGGGCCTCCATGTACATG (sugars e3 d14 e3, PS)” showed a target mRNA inhibition (HepG2, 0.12 µM) of 86%; a target mRNA inhibition (HepG2, 10 µM) of 59%; a target mRNA inhibition (HepG2, 20 µM) of 41%.
Turning to “CGCGATTCACTGAGGAC (sugars e3 d10 e4, PS)”, the target mRNA inhibition (HepG2, 2.5 µM) is 73% and 74%.
For the setting “HepG2, 0.12 µM”, “AGATATAGTTCCTGGTGGTC (sugars e5 d10 e5, PS)” yielded a target mRNA inhibition of 56%.
For the sequence “ATAGGCCTGGATGCCCAAGT (sugars e5 d10 e5, PS)”, the target mRNA inhibition (HepG2, 2.5 µM) came out at 49% and the target mRNA inhibition (HepG2, 10 µM) is 88%.
In the case of “TCCTATCAGTTAGCAGTGCA (sugars e5 d10 e5, PS)”, the target mRNA inhibition reads like this: (HepG2, 2.5 µM) 81% and 68%; (HepG2, 10 µM) 86% and 83%.
For “AGCCTCGGTGTCCTCTC (sugars e3 d10 e4, PS)”, the target mRNA inhibition stood at 8% (HepG2, 2.5 µM) and 90% (HepG2, 10 µM).
On to “CCCACAGAAGAGCAAAGGCT (sugars e5 d10 e5, PS)”, for which the target mRNA inhibition was 76% and 74% (HepG2, 2.5 µM); 94% and 92% (HepG2, 10 µM).
In turn, “TCGGAGGAGAAGAGGCCTCG (sugars e5 d10 e5, PS)” gave a target mRNA inhibition (HepG2, 0.12 µM) of 60%.
In turn, “GGGCGAAACCAATGTATTTC (sugars e5 d10 e5, PS)” came in with a target mRNA inhibition (HepG2, 0.12 µM) of 24%.
Consider “GGCAGAGAAACTGGTCCTGC (sugars e5 d10 e5, PS)”, for which the target mRNA inhibition turned out to be 55% (HepG2, 2.5 µM) and 81% (HepG2, 10 µM).
On to “AGGACAGAGGTTCAACATCC (sugars e5 d10 e5, PS)”, for which the target mRNA inhibition (HepG2, 0.12 µM) amounted to 53%.
On to “GCATGAACAAGGGCAAGTCC (sugars e5 d10 e5, PS)”, for which the target mRNA inhibition reads like this: (HepG2, 2.5 µM) 79%; (HepG2, 10 µM) 89%.
“AGGCATGGAGCTCAGAGACT (sugars e2 d13 e5, PS)” had a target mRNA inhibition (HepG2, 0.12 µM) of 78%.
Consider “GTTAGGATGCTTAACTTCTG (sugars e5 d10 e5, PS)”, for which the target mRNA inhibition (HepG2, 2.5 µM) was found to be 51% and the target mRNA inhibition (HepG2, 10 µM) turned out to be 86%.
Where the note is “HepG2, 0.12 µM”, “ACAGGACCCACTGGAGCACT (sugars e5 d10 e5, PS)” yielded a target mRNA inhibition of 79%.
For “AGGACCCACTGGAGCAC (sugars e3 d10 e4, PS)”, the target mRNA inhibition turned out to be 42% (HepG2, 2.5 µM) and 93% (HepG2, 10 µM).
Regarding “CAGTGCCCCATCTCCCAGAC (sugars e5 d10 e5, PS)”, the target mRNA inhibition (HepG2, 0.12 µM) came to 0%.
Turning to “AACTCTGCCATTTAATGAGC (sugars e5 d10 e5, PS)”, the target mRNA inhibition by setting is: (HepG2, 2.5 µM) 17%; (HepG2, 10 µM) 53%.
As to “ATTGCCACTCCCATTCTTTG (sugars e5 d10 e5, PS)”, the target mRNA inhibition (HepG2, 0.12 µM) was 35%.
On to “TGGTGGTTGCAATGTTGCCA (sugars e5 d10 e5, PS)”, for which the target mRNA inhibition is 88% and 80% (HepG2, 2.5 µM); 92% and 91% (HepG2, 10 µM).
Turning to “TTCCTTTGAAATCCAATGCA (sugars e5 d10 e5, PS)”, the target mRNA inhibition is 63% (HepG2, 2.5 µM) and 86% (HepG2, 10 µM).
“CATGTCATCAGCCACCCAAG (sugars e5 d10 e5, PS)” showed a target mRNA inhibition (HepG2, 0.12 µM) of 16%.
Sequence “GAGGAGTTCTCGAATATCCC (sugars e5 d10 e5, PS)” had a target mRNA inhibition (HepG2, 2.5 µM) of 43% and a target mRNA inhibition (HepG2, 10 µM) of 80%.
In the case of “AACAGGGTACAACTCTCTTG (sugars e5 d10 e5, PS)”, the target mRNA inhibition was 61% (HepG2, 2.5 µM) and 92% (HepG2, 10 µM).
On to “TGACCTGTAGCTGCTTTTCC (sugars e5 d10 e5, PS)”, for which the target mRNA inhibition (HepG2, 0.12 µM) is 35%.
Same read-out and setting: then “CAGTTTCGGACCCACTGTGA (sugars e3 d14 e3, PS)”, with 58%; and “CAGGACCCCGGAGTAGGCGG (sugars e5 d10 e5, PS)”, with 75%.
As for “ATGCCAATGCCTAGGTC (sugars e3 d10 e4, PS)”, the target mRNA inhibition (HepG2, 2.5 µM) was 70% and 84%.
In turn, “TTGCGGTTCCGCAGGGTGAC (sugars e5 d10 e5, PS)” displayed a target mRNA inhibition (HepG2, 0.12 µM) of 70%.
Same read-out and setting: the value for “GGTTGTGTGTCTTCACCAGC (sugars e2 d13 e5, PS)” was 68%.
As for “ATGGGAATGGTATCGCACTC (sugars e5 d10 e5, PS)”, the target mRNA inhibition is, setting by setting: (HepG2, 2.5 µM) 57% and 72%; (HepG2, 10 µM) 80% and 96%.
Sequence “TCTTTGAAAGCAAATAGTCT (sugars e5 d10 e5, PS)” yielded a target mRNA inhibition (HepG2, 0.12 µM) of 40%.
On the same count and under the same terms, then “CAGGTTGTGTGTCTTCACCA (sugars e2 d13 e5, PS)”, with 62%.
In turn, “GCTTCTTGGGCATCTGCTAG (sugars e5 d10 e5, PS)” returned a target mRNA inhibition (HepG2, 2.5 µM) of 74% and a target mRNA inhibition (HepG2, 10 µM) of 82%.
Under “HepG2, 0.12 µM”, “TGGACCCATCGGCCCCAGGA (sugars e5 d10 e5, PS)” yielded a target mRNA inhibition of 52%.
“GCTCAGTTCTTCCAACCAGT (sugars e5 d10 e5, PS)”: the target mRNA inhibition (HepG2, 2.5 µM) was 87% and 86%; the target mRNA inhibition (HepG2, 10 µM) was 94% and 93%.
Regarding “CCAGTTTCGGACCCACTGTG (sugars e2 d13 e5, PS)”, the target mRNA inhibition (HepG2, 0.12 µM) was 80%; the target mRNA inhibition (HepG2, 2.5 µM) worked out at 12%; the target mRNA inhibition (HepG2, 10 µM) is 25% and 50%; the target mRNA inhibition (HepG2, 20 µM) is 50%.
Consider “ACTGAGATCTCCAGCAGCAA (sugars e5 d10 e5, PS)”, for which the target mRNA inhibition was 50% and 61% and 56% (HepG2, 2.5 µM); 90% and 93% and 92% (HepG2, 10 µM).
In the case of “TTAGCTCTCAGTGAAGCTGG (sugars e5 d10 e5, PS)”, the target mRNA inhibition reads like this: (HepG2, 2.5 µM) 93%; (HepG2, 10 µM) 82%.
“GTGAAGTTCTATCCCTTGGC (sugars e5 d10 e5, PS)”: the target mRNA inhibition (HepG2, 2.5 µM) is 58% and 71%; the target mRNA inhibition (HepG2, 10 µM) is 91% and 93%.
In the case of “CCAATGCCTAGGTCACAGTT (sugars e5 d10 e5, PS)”, the target mRNA inhibition was 91% (HepG2, 2.5 µM) and 83% (HepG2, 10 µM).
Consider “CCTGTAGCTGCTTTTCCACC (sugars e5 d10 e5, PS)”, for which the target mRNA inhibition (HepG2, 0.12 µM) is 29%.
“ACTCCCAGTACAAGGAAGGA (sugars e5 d10 e5, PS)” showed a target mRNA inhibition (HepG2, 0.12 µM) of 3%.
The same measure, in the same setting: the value for “TGATAGCATTGCCACTCCCA (sugars e5 d10 e5, PS)” was 64%.
For “TAAATAACCCACAGACACCC (sugars e5 d10 e5, PS)”, for the setting “HepG2, 0.12 µM”, the target mRNA inhibition was 6%.
Take “TGGACAAGTCCTGCCCATCT (sugars e5 d10 e5, PS)”: for the setting “HepG2, 0.12 µM”, the target mRNA inhibition stood at 72%.
The same measure, in the same setting: the value for “GCCAGTGTAGCCAGGTAAGG (sugars e5 d10 e5, PS)” was 9%; that for “CAGGTAAGGCCGTATGCCTG (sugars e5 d10 e5, PS)” was 63%.
In the case of “TCACAGAATTATCAGCAGTA (sugars e5 d10 e5, PS)”, the target mRNA inhibition is 80% and 61% (HepG2, 2.5 µM); 93% and 84% (HepG2, 10 µM).
Take “TTAGGCATGCTTCCTCCCAC (sugars e5 d10 e5, PS)”: the target mRNA inhibition was found to be 78% (HepG2, 2.5 µM) and 68% (HepG2, 10 µM).
As for “CTTGGAGTAGGGCACCAGCC (sugars e5 d10 e5, PS)”, the target mRNA inhibition (HepG2, 0.12 µM) worked out at 35%.
Take “TAGTTCCTGGTGGTCAGCAG (sugars e5 d10 e5, PS)”: for the setting “HepG2, 0.12 µM”, the target mRNA inhibition was 48%.
Same read-out and setting: the value for “TTTGGAACTAATCTGCTGCT (sugars e5 d10 e5, PS)” was 50%; that for “CCAGGTAAGGCCGTATGCCT (sugars e2 d13 e5, PS)” was 64%.
“AGCACTTGATCTGGGACCCA (sugars e5 d10 e5, PS)” came in with a target mRNA inhibition (HepG2, 2.5 µM) of 65% and a target mRNA inhibition (HepG2, 10 µM) of 94%.
“ACAGCCCAGTTTCGGACCCA (sugars e5 d10 e5, PS)”: where the note is “HepG2, 0.12 µM”, the target mRNA inhibition was determined as 27%.
On to “AGCACAGCGATGAGCCA (sugars e3 d10 e4, PS)”, for which the target mRNA inhibition worked out at 58% (HepG2, 2.5 µM) and 87% (HepG2, 10 µM).
As to “TTCTTCTGGACCCATCGGCC (sugars e5 d10 e5, PS)”, the target mRNA inhibition (HepG2, 0.12 µM) came to 44%.
Sequence “GTTCTTGGGCCTAAAGGTGA (sugars e5 d10 e5, PS)” gave a target mRNA inhibition (HepG2, 0.12 µM) of 34%.
On the same count and under the same terms, the value for “CACTTCTGTGGCCTCTGTGC (sugars e5 d10 e5, PS)” was 38%; that for “CAGGTCCTCCGTGAGAGCGC (sugars e5 d10 e5, PS)” was 29%.
On the same count and under the same terms, then “GGCTTCACCGTCCCACAGCA (sugars e5 d10 e5, PS)”, with 39%.
With “AACCACTGTTGCTGAGCTCA (sugars e5 d10 e5, PS)”, the target mRNA inhibition is, setting by setting: (HepG2, 2.5 µM) 74% and 72%; (HepG2, 10 µM) 88%.
“ACAAAAGTCTGACATGGTGC (sugars e5 d10 e5, PS)”: the target mRNA inhibition stood at 77% (HepG2, 2.5 µM) and 78% (HepG2, 10 µM).
Taken in the same sequence, the figures for “TAAGCCTCGGTGTCCTCTCC (sugars e5 d10 e5, PS)” were 90% and 73%.
As for “CCCAGGAGCCCTCCTCGAAG (sugars e5 d10 e5, PS)”, the target mRNA inhibition (HepG2, 0.12 µM) was 54%.
The same measure, in the same setting: then “GGCCAAGGCTGAGTCTGTGC (sugars e5 d10 e5, PS)”, with 17%.
Regarding “ACTGGTGCCTAAGAGCCCTA (sugars e5 d10 e5, PS)”, the target mRNA inhibition (HepG2, 2.5 µM) stood at 77% and the target mRNA inhibition (HepG2, 10 µM) was 94%.
Take “AGCTCAGAGACTCAGCCGCA (sugars e5 d10 e5, PS)”: the target mRNA inhibition is 38% and 44% and 55% (HepG2, 2.5 µM); 78% and 86% (HepG2, 10 µM); 89% and 97% (HepG2, 20 µM).
For “GCATGGAGCTCAGAGACTCA (sugars e3 d14 e3, PS)”, the target mRNA inhibition (HepG2, 0.12 µM) worked out at 51%.
With “CAGCGATGAGCCAGCAA (sugars e3 d10 e4, PS)”, the target mRNA inhibition worked out at 35% (HepG2, 2.5 µM) and 88% (HepG2, 10 µM).
Taken in the same sequence, the figures for “GTGGCTCTCTAGATAGGGTG (sugars e5 d10 e5, PS)” were 68% and 84%.
“GGTATCCAAAGATATAGTTC (sugars e5 d10 e5, PS)” gave a target mRNA inhibition (HepG2, 0.12 µM) of 43%.
On the same count and under the same terms, then “CAGGTTGTGTGTCTTCACCA (sugars e3 d14 e3, PS)”, with 68%; and “TATCCAAAGATATAGTTCCT (sugars e5 d10 e5, PS)”, with 13%.
